Measurements published in patent US20240360082A1, “SUBSTITUTED PYRIDONE COMPOUNDS USEFUL TO TREAT ORTH[…]” (priority 2021, published 2024).

These compounds were tested against influenza A virus minigenome (PB2, PB1, PA, NP proteins) (UniProt P04665). Conditions: read-out: RNP_ Hubei B IC50.
Assay type: cell-based

influenza A virus minigenome (PB2, PB1, PA, NP proteins), sequence (P04665 whole entry): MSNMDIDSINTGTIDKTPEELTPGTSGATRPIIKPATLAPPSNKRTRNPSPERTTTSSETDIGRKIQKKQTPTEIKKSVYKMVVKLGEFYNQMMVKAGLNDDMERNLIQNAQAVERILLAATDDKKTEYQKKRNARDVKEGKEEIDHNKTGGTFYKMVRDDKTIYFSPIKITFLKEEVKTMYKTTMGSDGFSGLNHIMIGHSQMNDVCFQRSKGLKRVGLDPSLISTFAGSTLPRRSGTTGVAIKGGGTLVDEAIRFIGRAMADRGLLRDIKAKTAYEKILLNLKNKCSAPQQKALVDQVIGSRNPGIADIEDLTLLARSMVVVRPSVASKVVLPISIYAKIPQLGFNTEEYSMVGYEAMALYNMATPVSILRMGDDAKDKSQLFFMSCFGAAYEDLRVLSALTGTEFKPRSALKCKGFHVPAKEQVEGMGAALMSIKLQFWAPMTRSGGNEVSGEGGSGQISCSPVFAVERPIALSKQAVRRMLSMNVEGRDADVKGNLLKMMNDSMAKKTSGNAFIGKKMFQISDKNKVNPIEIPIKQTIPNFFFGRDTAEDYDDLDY

SMILES	IC50 [µM]
C[C@@H]1COC[C@H](COc2ccc(-c3cc(C(N)=O)c(=O)[nH]c3C(F)(F)F)cc2)O1 [Example 328, 5-(4-(((2R,6R)-6-methyl-1,4-dioxan-2-yl)methoxy)phenyl)-2-oxo-6-(trifluoromethyl)-1,2-dihydropyridine-3-carboxamide]	10 to 25
C[C@@H]1COC[C@@H](COc2ccc(-c3cc(C(N)=O)c(=O)[nH]c3C(F)(F)F)cc2)O1 [Example 329, 5-(4-(((2S,6R)-6-methyl-1,4-dioxan-2-yl)methoxy)phenyl)-2-oxo-6-(trifluoromethyl)-1,2-dihydropyridine-3-carboxamide]	25 to 50
C[C@H]1COC[C@@H](COc2ccc(-c3cc(C(N)=O)c(=O)[nH]c3C(F)(F)F)cc2)O1 [Example 330, 5-(4-(((2S,6S)-6-methyl-1,4-dioxan-2-yl)methoxy)phenyl)-2-oxo-6-(trifluoromethyl)-1,2-dihydropyridine-3-carboxamide]	25 to 50
C[C@H]1COC[C@H](COc2ccc(-c3cc(C(N)=O)c(=O)[nH]c3C(F)(F)F)cc2)O1 [Example 331, 5-(4-(((2R,6S)-6-methyl-1,4-dioxan-2-yl)methoxy)phenyl)-2-oxo-6-(trifluoromethyl)-1,2-dihydropyridine-3-carboxamide]	10 to 25
NC(=O)c1cc(-c2ccc(OCC3COCc4c(C5CC5)nnn43)cc2)c(C(F)(F)F)[nH]c1=O (stereo not drawn) [Example 381, 5-(4-((3-cyclopropyl-6,7-dihydro-4H-[1,2,3]triazolo[5,1-c][1,4]oxazin-7-yl)methoxy)phenyl)-2-oxo-6-(trifluoromethyl)-1,2-dihydropyridine-3-carboxamide]	5 to 10
COC(C)(C)C1COCC(COc2ccc(-c3cc(C(N)=O)c(=O)[nH]c3C(F)(F)F)cc2)O1 (stereo not drawn) [Example 382, 5-(4-((6-(2-methoxypropan-2-yl)-1,4-dioxan-2-yl)methoxy)phenyl)-2-oxo-6-(trifluoromethyl)-1,2-dihydropyridine-3-carboxamide]	5 to 10
NC(=O)c1cc(-c2ccc(OCC3COCC(CO)O3)cc2)c(C(F)(F)F)[nH]c1=O (stereo not drawn) [Example 384, 5-(4-((6-(hydroxymethyl)-1,4-dioxan-2-yl)methoxy)phenyl)-2-oxo-6-(trifluoromethyl)-1,2-dihydropyridine-3-carboxamide]	5 to 10
NC(=O)c1cc(-c2ccc(OCC3(F)COCCO3)cc2)c(C(F)(F)F)[nH]c1=O (stereo not drawn) [Example 388, 5-(4-((2-fluoro-1,4-dioxan-2-yl)methoxy)phenyl)-2-oxo-6-(trifluoromethyl)-1,2-dihydropyridine-3-carboxamide]	5 to 10
NC(=O)c1cc(-c2ccc(OCC3CO[C@@H]4[C@H](O3)C4(F)F)cc2)c(C(F)(F)F)[nH]c1=O (stereo partly drawn) [Example 390, 5-(4-((cis-7,7-difluoro-2,5-dioxabicyclo[4.1.0]heptan-3-yl)methoxy)phenyl)-2-oxo-6-(trifluoromethyl)-1,2-dihydropyridine-3-carboxamide]	1 to 5
NC(=O)c1cc(-c2ccc(OC[C@H]3CO[C@H]4[C@@H](O3)C4(F)F)cc2)c(C(F)(F)F)[nH]c1=O [Example 391, 5-(4-((trans-7,7-difluoro-2,5-dioxabicyclo[4.1.0]heptan-3-yl)methoxy)phenyl)-2-oxo-6-(trifluoromethyl)-1,2-dihydropyridine-3-carboxamide]	1 to 5
C[C@]12O[C@H](COc3ccc(-c4cc(C(N)=O)c(=O)[nH]c4C(F)(F)F)cc3)CO[C@H]1C2(F)F [Example 394, 5-(4-(((1S,3S,6R)-7,7-difluoro-1-methyl-2,5-dioxabicyclo[4.1.0]heptan-3-yl)methoxy)phenyl)-2-oxo-6-(trifluoromethyl)-1,2-dihydropyridine-3-carboxamide]	5 to 10
C[C@@]12O[C@H](COc3ccc(-c4cc(C(N)=O)c(=O)[nH]c4C(F)(F)F)cc3)CO[C@@H]1C2(F)F [Example 395, 55-(4-(((1R,3S,6S)-7,7-difluoro-1-methyl-2,5-dioxabicyclo[4.1.0]heptan-3-yl)methoxy)phenyl)-2-oxo-6-(trifluoromethyl)-1,2-dihydropyridine-3-carboxamide]	5 to 10
C[C@@]12O[C@@H](COc3ccc(-c4cc(C(N)=O)c(=O)[nH]c4C(F)(F)F)cc3)CO[C@@H]1C2(F)F [Example 396, 5-(4-(((1R,3R,6S)-7,7-difluoro-1-methyl-2,5-dioxabicyclo[4.1.0]heptan-3-yl)methoxy)phenyl)-2-oxo-6-(trifluoromethyl)-1,2-dihydropyridine-3-carboxamide]	5 to 10
C[C@]12O[C@@H](COc3ccc(-c4cc(C(N)=O)c(=O)[nH]c4C(F)(F)F)cc3)CO[C@H]1C2(F)F [Example 397, 5-(4-(((1S,3R,6R)-7,7-difluoro-1-methyl-2,5-dioxabicyclo[4.1.0]heptan-3-yl)methoxy)phenyl)-2-oxo-6-(trifluoromethyl)-1,2-dihydropyridine-3-carboxamide]	5 to 10
COC[C@H]1COC[C@@H](COc2ccc(-c3cc(C(N)=O)c(=O)[nH]c3C(F)(F)F)cc2)O1 [Example 398, 5-(4-(((2S,6S)-6-(methoxymethyl)-1,4-dioxan-2-yl)methoxy)phenyl)-2-oxo-6-(trifluoromethyl)-1,2-dihydropyridine-3-carboxamide]	5 to 10
COC[C@@H]1COC[C@@H](COc2ccc(-c3cc(C(N)=O)c(=O)[nH]c3C(F)(F)F)cc2)O1 [Example 399, 5-(4-(((2S,6R)-6-(methoxymethyl)-1,4-dioxan-2-yl)methoxy)phenyl)-2-oxo-6-(trifluoromethyl)-1,2-dihydropyridine-3-carboxamide]	5 to 10
CC(C)OC[C@H]1COC[C@@H](COc2ccc(-c3cc(C(N)=O)c(=O)[nH]c3C(F)(F)F)cc2)O1 [Example 402, 5-(4-(((2S,6R)-6-(isopropoxymethyl)-1,4-dioxan-2-yl)methoxy)phenyl)-2-oxo-6-(trifluoromethyl)-1,2-dihydropyridine-3-carboxamide]	5 to 10
NC(=O)c1cc(-c2ccc(OC[C@@H]3COC[C@H](C4CC4)O3)cc2)c(C(F)(F)F)[nH]c1=O [Example 404, 5-(4-(((2S,6S)-6-cyclopropyl-1,4-dioxan-2-yl)methoxy)phenyl)-2-oxo-6-(trifluoromethyl)-1,2-dihydropyridine-3-carboxamide]	10 to 25
COC[C@@]1(C)COC[C@@H](COc2ccc(-c3cc(C(N)=O)c(=O)[nH]c3C(F)(F)F)cc2)O1 [Example 405, 5-(4-(((2S,6S)-6-(methoxymethyl)-6-methyl-1,4-dioxan-2-yl)methoxy)phenyl)-2-oxo-6-(trifluoromethyl)-1,2-dihydropyridine-3-carboxamide]	5 to 10
COC[C@]1(C)COC[C@@H](COc2ccc(-c3cc(C(N)=O)c(=O)[nH]c3C(F)(F)F)cc2)O1 [Example 406, 5-(4-(((2S,6R)-6-(methoxymethyl)-6-methyl-1,4-dioxan-2-yl)methoxy)phenyl)-2-oxo-6-(trifluoromethyl)-1,2-dihydropyridine-3-carboxamide]	5 to 10

Same assay, conditions: read-out: RNP_Hubei B

SMILES	IC50 [µM]
NC(=O)c1cc(-c2ccc(OC(F)(F)C3COCCO3)cc2)c(C(F)(F)F)[nH]c1=O (stereo not drawn) [Example 389, 5-(4-((1,4-dioxan-2-yl)difluoromethoxy)phenyl)-2-oxo-6-(trifluoromethyl)-1,2-dihydropyridine-3-carboxamide]	5 to 10
